Results: patent US20190060249A1 (priority 2017, published 2019)

How the values were obtained:
Type in all cases: biochemical
[1] = biological target: T1, ALDH4A1 (Homo sapiens, UniProt P30038); experiment: ALDH enzymatic assay, recombinant ALDH4A1; details: 5 μg/ml recombinant enzyme, 10 mM acetaldehyde, 20 μM Alda-341
T1 sequence (P30038 25-563): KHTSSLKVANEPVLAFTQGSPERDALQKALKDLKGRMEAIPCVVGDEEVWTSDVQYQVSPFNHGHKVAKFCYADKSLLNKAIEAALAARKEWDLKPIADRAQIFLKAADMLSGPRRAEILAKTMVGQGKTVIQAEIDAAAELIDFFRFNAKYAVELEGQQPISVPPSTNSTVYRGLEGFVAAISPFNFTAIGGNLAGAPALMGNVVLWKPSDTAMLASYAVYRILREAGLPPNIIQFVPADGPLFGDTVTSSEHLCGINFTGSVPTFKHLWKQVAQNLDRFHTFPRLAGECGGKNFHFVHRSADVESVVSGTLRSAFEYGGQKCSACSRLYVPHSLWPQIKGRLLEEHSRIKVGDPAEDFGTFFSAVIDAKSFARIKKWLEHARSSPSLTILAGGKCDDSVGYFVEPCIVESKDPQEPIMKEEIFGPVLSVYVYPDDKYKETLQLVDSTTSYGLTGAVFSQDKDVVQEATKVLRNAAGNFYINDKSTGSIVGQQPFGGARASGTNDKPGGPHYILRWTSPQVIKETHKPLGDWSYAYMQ
Description: (§1) ALDH enzymatic assay: ALDH1A1, ALDH1A2, 2, 3A1, 3A2, 4A1, 5A1, 7A1 were measured as previously described using 5 μg/ml of recombinant protein (Chen, C. H., Cruz, L. A., and Mochly-Rosen, D. (2015) Pharmacological recruitment of aldehyde dehydrogenase 3A1 (ALDH3A1) to assist ALDH2 in acetaldehyde and ethanol metabolism in vivo. Proceedings of the National Academy of Sciences of the United States of America 112, 3074-3079). […] Assays were conducted in 50 mM NaPPi buffer (pH 7.4) in the presence of 2.5 mM NAD^+ and 10 mM substrate and measured in triplicate at 25° C. Dose response curve fits and EC50's were calculated using GraphPad Prism 7 software.

[2] = biological target: T2, ALDH1A2 (Homo sapiens, UniProt O94788); experiment: ALDH fluorescence-coupled enzymatic assay, all-trans-retinal substrate, ALDH1A2
T2 sequence (O94788 1-518): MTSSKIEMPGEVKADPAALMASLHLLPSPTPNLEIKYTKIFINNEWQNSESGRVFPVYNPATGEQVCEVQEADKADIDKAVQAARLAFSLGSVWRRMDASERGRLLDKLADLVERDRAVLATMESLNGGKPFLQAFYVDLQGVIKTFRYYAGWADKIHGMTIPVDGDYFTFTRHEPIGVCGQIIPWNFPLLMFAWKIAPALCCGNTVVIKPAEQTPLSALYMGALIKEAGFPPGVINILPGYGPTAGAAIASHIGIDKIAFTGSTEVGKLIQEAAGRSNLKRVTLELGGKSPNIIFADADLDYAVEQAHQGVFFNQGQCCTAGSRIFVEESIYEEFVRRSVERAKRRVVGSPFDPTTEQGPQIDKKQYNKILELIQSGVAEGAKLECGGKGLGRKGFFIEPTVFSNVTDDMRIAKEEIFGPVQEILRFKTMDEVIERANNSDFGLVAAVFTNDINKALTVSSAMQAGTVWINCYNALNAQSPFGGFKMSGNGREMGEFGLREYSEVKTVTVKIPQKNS
Description: Assay conditions were modified from the original enzyme assay protocol above using 50 mM NaPPi buffer (pH 7.4), 2.5 mM NAD^+, 10 mM acetaldehyde or all-trans-retinal substrate with the addition of 1 U/mL diaphorase and 0.1 mM resazurin for the secondary reaction. Measurements were collected in triplicate at 25° C.

[3] = biological target: T3, ALDH2 (Homo sapiens, UniProt P05091); experiment: ALDH enzymatic assay, recombinant ALDH2; details: 5 μg/ml recombinant enzyme, 10 mM acetaldehyde, 20 μM Alda-341
T3 sequence (P05091 18-517): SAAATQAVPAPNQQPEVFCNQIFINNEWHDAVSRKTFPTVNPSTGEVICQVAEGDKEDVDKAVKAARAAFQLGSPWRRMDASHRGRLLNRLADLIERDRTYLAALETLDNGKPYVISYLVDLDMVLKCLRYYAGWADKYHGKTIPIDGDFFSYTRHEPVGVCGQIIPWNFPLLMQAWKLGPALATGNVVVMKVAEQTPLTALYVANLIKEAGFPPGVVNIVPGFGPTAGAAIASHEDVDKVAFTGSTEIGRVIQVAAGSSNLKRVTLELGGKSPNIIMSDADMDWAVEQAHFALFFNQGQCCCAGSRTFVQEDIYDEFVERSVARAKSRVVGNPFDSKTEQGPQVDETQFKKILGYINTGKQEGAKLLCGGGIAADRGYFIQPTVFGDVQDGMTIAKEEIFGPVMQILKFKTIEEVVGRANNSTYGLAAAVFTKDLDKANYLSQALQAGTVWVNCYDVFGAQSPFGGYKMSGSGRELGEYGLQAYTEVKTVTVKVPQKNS
Description: as §1

C=C(C)[C@H]1CC=C(C)CC1 [Alda-341, D-limonene]
did not increase: catalytic activity of ALDH4A1 [1] | catalytic activity of all trans-retinal in ALDH1A2 [2] | catalytic activity of ALDH2 [3]
